Literature values as cited in US8945508B2, “Dendrimer compositions and methods of synthesis” (priority 2009, dated 2015).

Key:
[1] = more cytotoxic than IRINOTECAN

Row | SMILES | cytotoxicity relative to IRINOTECAN [1] | in vivo activity in solid tumor models (solid tumors)
1 | CC[C@@]1(O)C(=O)OCc2c1cc1n(c2=O)Cc2cc3cc(O)ccc3nc2-1 [SN-38, 10-hydroxycamptothecin] | 1000 fold | 
2 | N.N.[Cl][Pt][Cl] [cisplatin] |  | no effect
